Reference: ChEMBL document CHEMBL5291721, “A preclinical secondary pharmacology resource illuminates target-adverse drug reaction associations of marketed drugs” (Nat Commun, 2023)

Experiments:
Adenosine receptor A2a = Adenosine receptor A2a (Homo sapiens, UniProt P29274)
[1] = molecular target: T1, Alpha-2C adrenergic receptor (Homo sapiens, UniProt P18825); format: functional
T1 sequence (P18825 whole entry): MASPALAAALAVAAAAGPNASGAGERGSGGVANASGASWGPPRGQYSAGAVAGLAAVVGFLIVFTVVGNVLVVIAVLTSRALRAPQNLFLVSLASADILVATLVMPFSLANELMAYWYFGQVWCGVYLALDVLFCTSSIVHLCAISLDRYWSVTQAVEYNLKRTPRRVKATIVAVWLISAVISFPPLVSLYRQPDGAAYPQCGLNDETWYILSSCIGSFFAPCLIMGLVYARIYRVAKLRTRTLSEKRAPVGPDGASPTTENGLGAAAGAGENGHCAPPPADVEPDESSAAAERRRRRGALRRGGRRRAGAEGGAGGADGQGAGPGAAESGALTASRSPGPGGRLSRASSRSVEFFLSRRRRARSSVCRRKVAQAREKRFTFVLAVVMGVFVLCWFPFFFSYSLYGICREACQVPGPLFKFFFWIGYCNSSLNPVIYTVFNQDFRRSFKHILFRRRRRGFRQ

[2] = molecular target: Voltage-dependent L-type calcium channel subunit alpha-1C (Rattus norvegicus, UniProt P22002); format: functional
[3] = molecular target: T2, Muscarinic acetylcholine receptor M2 (Homo sapiens, UniProt P08172); format: functional, cell-based
T2 sequence (P08172 whole entry): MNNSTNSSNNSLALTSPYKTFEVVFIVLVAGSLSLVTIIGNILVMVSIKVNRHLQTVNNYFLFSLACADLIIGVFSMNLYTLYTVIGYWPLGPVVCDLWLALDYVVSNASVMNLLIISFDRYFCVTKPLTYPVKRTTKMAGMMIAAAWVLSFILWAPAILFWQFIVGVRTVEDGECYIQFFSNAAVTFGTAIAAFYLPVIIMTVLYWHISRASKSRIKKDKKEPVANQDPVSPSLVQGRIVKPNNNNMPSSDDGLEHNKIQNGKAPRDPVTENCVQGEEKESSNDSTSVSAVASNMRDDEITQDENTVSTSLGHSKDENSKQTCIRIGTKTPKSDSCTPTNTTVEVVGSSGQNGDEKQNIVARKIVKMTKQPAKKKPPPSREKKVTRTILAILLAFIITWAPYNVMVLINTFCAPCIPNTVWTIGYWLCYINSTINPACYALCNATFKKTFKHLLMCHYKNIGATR

Cannabinoid receptor 1 = Cannabinoid receptor 1 (Homo sapiens, UniProt P21554); format: functional, cell-based
[4] = molecular target: Growth hormone secretagogue receptor type 1 (Homo sapiens, UniProt Q92847)
[5] = molecular target: T3, 5-hydroxytryptamine receptor 2B (Homo sapiens, UniProt P41595); format: functional, cell-based
[6] = molecular target: T3, 5-hydroxytryptamine receptor 2B; format: functional, cell-based; remark: listed apart in the source
Motilin receptor = Motilin receptor (Homo sapiens, UniProt O43193)
[7] = molecular target: Kappa-type opioid receptor (Homo sapiens, UniProt P41145)
Progesterone receptor = molecular target: T4, Progesterone receptor (Homo sapiens, UniProt P06401); format: functional
T4 sequence (P06401 whole entry): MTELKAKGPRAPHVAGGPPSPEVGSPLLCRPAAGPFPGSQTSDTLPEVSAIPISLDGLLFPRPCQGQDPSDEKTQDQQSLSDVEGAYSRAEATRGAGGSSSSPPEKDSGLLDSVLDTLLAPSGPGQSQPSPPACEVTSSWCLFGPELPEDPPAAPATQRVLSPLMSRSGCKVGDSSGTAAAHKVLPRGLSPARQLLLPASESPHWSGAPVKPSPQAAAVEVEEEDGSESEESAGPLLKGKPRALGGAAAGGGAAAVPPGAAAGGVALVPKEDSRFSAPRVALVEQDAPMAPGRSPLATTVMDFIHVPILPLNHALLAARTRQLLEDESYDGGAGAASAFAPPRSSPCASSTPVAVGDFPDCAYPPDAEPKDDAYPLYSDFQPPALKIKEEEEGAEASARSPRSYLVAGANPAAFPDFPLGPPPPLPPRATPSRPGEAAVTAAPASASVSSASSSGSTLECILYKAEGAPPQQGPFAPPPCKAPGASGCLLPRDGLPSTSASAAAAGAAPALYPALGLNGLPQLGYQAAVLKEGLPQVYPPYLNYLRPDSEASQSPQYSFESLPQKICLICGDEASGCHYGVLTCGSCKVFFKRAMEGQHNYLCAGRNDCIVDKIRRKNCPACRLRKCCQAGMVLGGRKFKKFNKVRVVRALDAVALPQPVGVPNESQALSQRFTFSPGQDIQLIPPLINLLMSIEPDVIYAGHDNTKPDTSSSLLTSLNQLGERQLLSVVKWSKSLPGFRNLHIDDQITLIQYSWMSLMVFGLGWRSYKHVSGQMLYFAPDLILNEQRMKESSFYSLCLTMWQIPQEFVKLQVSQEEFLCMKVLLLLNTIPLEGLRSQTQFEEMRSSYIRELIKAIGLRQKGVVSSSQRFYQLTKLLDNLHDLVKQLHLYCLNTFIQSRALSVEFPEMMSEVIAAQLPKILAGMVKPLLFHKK

[8] = molecular target: Sodium-dependent noradrenaline transporter (Homo sapiens, UniProt P23975)
Histamine H3 receptor = Histamine H3 receptor (Homo sapiens, UniProt Q9Y5N1)
Note: assay procedure not described here.

Sequence of Histamine H3 receptor (Q9Y5N1 whole entry): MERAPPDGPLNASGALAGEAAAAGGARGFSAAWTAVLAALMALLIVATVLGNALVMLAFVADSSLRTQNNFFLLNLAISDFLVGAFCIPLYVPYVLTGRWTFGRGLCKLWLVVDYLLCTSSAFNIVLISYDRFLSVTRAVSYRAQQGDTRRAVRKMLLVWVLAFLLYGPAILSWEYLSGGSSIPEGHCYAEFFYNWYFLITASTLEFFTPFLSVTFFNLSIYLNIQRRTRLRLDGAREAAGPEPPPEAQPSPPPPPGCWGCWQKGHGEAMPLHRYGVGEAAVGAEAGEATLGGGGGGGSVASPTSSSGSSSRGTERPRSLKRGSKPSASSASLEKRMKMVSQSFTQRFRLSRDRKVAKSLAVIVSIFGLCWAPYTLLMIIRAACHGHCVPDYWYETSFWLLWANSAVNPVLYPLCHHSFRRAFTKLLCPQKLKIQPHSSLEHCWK
Sequence of Kappa-type opioid receptor (P41145 whole entry): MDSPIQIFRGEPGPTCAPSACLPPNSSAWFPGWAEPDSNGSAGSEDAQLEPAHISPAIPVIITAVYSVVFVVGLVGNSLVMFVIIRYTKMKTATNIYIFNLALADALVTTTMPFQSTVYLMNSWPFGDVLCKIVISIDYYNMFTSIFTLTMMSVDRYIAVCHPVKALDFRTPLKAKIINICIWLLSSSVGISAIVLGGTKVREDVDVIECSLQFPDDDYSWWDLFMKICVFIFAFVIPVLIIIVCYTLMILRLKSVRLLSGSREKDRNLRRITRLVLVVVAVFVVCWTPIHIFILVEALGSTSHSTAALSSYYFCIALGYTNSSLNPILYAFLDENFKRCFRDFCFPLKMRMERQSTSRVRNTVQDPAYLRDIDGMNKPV
Sequence of Cannabinoid receptor 1 (P21554 whole entry): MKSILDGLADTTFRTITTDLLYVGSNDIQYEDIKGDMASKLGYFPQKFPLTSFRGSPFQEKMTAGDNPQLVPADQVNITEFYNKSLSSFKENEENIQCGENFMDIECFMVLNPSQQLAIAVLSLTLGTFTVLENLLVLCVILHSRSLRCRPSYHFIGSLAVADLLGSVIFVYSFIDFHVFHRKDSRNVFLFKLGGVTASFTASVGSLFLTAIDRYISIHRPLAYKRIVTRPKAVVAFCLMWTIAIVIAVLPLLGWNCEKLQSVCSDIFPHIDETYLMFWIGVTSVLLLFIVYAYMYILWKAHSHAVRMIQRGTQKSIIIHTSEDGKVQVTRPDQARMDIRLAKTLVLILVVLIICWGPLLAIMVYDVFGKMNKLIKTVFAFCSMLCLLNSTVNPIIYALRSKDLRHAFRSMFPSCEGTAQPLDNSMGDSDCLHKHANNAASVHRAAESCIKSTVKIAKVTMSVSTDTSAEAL
Sequence of Growth hormone secretagogue receptor type 1 (Q92847 whole entry): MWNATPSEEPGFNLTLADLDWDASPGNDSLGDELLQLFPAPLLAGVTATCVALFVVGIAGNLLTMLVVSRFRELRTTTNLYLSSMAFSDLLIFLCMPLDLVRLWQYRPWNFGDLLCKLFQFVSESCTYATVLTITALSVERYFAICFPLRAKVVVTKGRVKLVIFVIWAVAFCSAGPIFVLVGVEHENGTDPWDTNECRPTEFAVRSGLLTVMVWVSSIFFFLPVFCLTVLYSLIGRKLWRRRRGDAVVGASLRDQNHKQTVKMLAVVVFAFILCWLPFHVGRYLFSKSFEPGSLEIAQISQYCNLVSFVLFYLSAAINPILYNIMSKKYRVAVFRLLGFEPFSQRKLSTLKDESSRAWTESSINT
Sequence of Sodium-dependent noradrenaline transporter (P23975 whole entry): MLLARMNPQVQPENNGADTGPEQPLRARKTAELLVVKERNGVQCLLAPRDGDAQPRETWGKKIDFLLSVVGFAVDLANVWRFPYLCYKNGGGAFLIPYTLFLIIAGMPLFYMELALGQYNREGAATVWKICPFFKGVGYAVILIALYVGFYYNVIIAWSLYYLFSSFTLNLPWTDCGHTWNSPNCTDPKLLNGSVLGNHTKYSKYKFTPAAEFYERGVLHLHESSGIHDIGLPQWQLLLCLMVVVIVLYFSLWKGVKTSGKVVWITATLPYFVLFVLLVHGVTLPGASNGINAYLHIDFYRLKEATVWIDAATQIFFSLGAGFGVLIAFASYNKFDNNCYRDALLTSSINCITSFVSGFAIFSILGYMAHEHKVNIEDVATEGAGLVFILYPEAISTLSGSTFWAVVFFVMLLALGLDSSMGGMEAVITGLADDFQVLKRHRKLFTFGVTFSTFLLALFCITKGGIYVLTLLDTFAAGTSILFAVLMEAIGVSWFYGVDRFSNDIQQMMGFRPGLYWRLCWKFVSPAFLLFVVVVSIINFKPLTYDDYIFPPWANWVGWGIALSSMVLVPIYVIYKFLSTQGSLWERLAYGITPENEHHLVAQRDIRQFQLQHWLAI
Sequence of Adenosine receptor A2a (P29274 whole entry): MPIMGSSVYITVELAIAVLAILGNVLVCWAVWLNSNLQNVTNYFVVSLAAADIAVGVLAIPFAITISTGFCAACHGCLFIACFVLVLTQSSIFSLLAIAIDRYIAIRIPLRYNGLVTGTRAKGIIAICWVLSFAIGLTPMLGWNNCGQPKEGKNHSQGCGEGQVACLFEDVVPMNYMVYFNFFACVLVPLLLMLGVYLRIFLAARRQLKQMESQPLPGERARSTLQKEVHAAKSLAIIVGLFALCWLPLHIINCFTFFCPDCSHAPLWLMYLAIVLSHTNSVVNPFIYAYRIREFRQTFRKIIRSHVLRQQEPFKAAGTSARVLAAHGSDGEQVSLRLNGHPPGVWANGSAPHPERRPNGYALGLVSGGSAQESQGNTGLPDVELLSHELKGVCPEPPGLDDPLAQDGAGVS
Sequence of Voltage-dependent L-type calcium channel subunit alpha-1C (P22002 whole entry): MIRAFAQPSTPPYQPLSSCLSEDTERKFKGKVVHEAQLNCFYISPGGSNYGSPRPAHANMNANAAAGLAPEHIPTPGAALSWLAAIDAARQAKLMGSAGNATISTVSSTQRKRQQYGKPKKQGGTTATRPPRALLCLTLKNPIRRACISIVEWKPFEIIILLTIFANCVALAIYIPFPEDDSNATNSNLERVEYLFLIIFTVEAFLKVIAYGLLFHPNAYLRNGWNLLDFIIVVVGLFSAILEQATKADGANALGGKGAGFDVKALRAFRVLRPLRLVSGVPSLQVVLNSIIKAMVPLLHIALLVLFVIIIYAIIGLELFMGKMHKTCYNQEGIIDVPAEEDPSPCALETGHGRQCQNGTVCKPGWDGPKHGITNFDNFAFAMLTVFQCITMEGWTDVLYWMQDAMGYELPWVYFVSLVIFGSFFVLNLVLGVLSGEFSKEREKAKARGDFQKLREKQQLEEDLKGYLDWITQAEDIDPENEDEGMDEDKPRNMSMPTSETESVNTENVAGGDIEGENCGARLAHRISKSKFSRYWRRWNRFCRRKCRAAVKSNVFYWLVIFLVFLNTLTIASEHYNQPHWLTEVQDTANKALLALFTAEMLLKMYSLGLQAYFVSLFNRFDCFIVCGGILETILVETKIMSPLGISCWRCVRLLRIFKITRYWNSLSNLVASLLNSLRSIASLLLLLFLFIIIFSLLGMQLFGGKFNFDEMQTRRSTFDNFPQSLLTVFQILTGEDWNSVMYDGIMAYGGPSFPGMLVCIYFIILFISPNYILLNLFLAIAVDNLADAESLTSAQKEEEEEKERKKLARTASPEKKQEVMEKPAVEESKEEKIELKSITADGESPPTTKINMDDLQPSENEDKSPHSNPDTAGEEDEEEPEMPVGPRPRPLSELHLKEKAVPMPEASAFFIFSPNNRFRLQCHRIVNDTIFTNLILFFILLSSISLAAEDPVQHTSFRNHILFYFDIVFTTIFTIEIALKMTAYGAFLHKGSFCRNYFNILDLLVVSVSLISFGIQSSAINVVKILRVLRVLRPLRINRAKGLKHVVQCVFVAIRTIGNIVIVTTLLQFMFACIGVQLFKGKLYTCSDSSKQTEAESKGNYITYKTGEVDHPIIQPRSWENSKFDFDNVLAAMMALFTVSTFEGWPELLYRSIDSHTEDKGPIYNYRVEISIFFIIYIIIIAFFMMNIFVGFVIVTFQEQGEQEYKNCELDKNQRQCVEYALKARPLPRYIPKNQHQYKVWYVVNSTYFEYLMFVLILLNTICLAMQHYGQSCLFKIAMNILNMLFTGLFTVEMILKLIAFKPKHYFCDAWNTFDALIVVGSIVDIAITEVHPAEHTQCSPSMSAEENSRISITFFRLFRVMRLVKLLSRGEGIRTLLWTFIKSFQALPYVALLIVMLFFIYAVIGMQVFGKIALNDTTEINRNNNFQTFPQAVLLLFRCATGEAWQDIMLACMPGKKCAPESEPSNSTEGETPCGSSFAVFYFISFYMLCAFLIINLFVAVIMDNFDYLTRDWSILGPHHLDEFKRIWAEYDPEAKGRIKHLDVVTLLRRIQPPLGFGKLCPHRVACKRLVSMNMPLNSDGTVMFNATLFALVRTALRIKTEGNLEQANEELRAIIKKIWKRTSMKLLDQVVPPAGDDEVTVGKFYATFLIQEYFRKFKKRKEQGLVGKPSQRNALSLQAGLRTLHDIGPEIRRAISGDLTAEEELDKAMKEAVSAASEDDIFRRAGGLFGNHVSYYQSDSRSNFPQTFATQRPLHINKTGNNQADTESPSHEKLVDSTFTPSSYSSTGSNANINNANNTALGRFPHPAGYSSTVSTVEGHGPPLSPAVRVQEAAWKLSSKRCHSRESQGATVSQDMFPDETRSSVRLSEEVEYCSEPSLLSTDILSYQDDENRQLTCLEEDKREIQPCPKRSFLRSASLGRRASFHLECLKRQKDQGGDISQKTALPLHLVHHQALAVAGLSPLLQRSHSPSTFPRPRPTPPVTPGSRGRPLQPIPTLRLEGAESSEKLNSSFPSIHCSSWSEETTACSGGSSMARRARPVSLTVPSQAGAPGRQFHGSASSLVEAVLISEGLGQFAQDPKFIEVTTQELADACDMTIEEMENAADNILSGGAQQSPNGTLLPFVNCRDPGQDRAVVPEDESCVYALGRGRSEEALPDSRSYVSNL

SMILES	AC50 (Adenosine receptor A2a) [µM]	AC50 [1] [µM]	AC50 [2] [µM]	AC50 [3] [µM]	AC50 (Cannabinoid receptor 1) [µM]	AC50 [4] [µM]	AC50 [5] [µM]	AC50 [6] [µM]	AC50 (Motilin receptor) [µM]	AC50 [7] [µM]	AC50 (Progesterone receptor) [µM]	AC50 [8] [µM]	AC50 (Histamine H3 receptor) [µM]
O=C(C[S+]([O-])Cc1ccco1)NC/C=C\COc1cc(CN2CCCCC2)ccn1 (centres undefined) [LAFUTIDINE]	> 10	2.6	> 10	> 10	> 30	> 10	> 10	> 10	> 10	> 10	> 10	> 10	> 10
CCC1(CC)C(=O)NC(=O)N(C)C1=O [METHARBITAL]	> 10	> 10	> 10	> 10	–	> 10	> 10	> 10	> 10	> 10	> 10	> 10	> 10
C=C(c1ccccc1OCc1cccc(Cl)c1)n1ccnc1 [CROCONAZOLE]	> 30	> 10	18.8	> 10	> 30	> 30	> 10	8.5	> 10	1.03	> 30	1.8	> 10
CC(C)(C)NCC(O)COc1cccc2c1CC(O)C(O)C2 (centres undefined) [NADOLOL]	> 10	> 10	> 10	> 10	> 30	> 10	> 10	> 10	> 10	> 10	> 10	> 10	> 10
Nc1nc(Cl)nc2c1ncn2[C@@H]1O[C@H](CO)[C@@H](O)[C@@H]1F [CLOFARABINE]	22.1	> 30	> 30	> 10	–	> 30	> 30	> 30	> 30	> 10	> 30	> 30	> 30
CC(=O)N1CCN(c2ccc(OCC3COC(Cn4ccnc4)(c4ccc(Cl)cc4Cl)O3)cc2)CC1 (centres undefined) [KETOCONAZOLE]	> 30	> 10	> 10	–	> 30	> 10	> 10	15	> 10	> 10	> 10	> 30	> 10
CC1CC(OC(=O)C(O)c2ccccc2)CC(C)(C)C1 (centres undefined) [CYCLANDELATE]	> 10	> 10	> 10	> 10	–	> 10	> 10	> 10	> 10	> 10	> 30	> 30	> 10
OCC(O)COc1ccc(Cl)cc1 (centres undefined)	> 10	> 10	> 10	> 10	–	> 10	> 10	> 10	> 10	> 10	> 10	> 10	> 10
CN(Cc1ccc(C(C)(C)C)cc1)Cc1cccc2ccccc12 [BUTENAFINE]	> 10	> 10	> 10	> 10	–	> 10	> 10	> 10	> 10	> 10	> 30	> 10	> 10
Nc1ccc(S(=O)(=O)Nc2ncccn2)cc1 [SULFADIAZINE]	> 10	> 10	> 10	> 10	–	> 10	> 10	> 10	> 10	> 10	> 10	> 10	> 10
CC(C)CN(C[C@@H](O)[C@H](Cc1ccccc1)NC(=O)O[C@H]1CCOC1)S(=O)(=O)c1ccc(N)cc1	> 30	> 10	> 10	> 10	> 30	> 30	> 10	> 10	7.3	> 10	> 10	> 10	> 10
CCN(C(C)=O)c1cccc(-c2ccnc3c(C#N)cnn23)c1 [ZALEPLON]	> 30	> 10	> 10	> 10	> 30	> 30	> 10	> 10	> 30	> 10	> 30	> 30	> 10
CN1CCC(=C2c3ccccc3CC(=O)c3sccc32)CC1 [KETOTIFEN]	> 10	6.45	> 10	1.9	> 30	> 10	> 10	0.09	> 10	5.38	> 10	> 10	–
CC(C(=O)O)c1ccc(C(=O)c2ccccc2)s1 (centres undefined) [TIAPROFENIC ACID]	> 10	15	> 10	> 10	> 30	> 10	> 10	> 10	> 10	> 10	> 10	> 10	> 10
C[C@@H](Cc1ccccc1)N(C)Cc1ccccc1 [BENZPHETAMINE]	> 10	0.68	> 10	> 10	> 30	> 10	> 10	> 10	> 10	1.97	> 10	0.036	> 10
OCC(CO)N[C@H]1C[C@](O)(CO)[C@@H](O)[C@H](O)[C@H]1O [VOGLIBOSE]	> 30	> 30	> 30	> 30	–	> 30	> 30	> 30	> 30	> 30	> 30	> 30	> 30
